Test results from patent US20260234159A1, “SMALL MOLECULE TREATMENT OF FATTY LIVER DISEASE AND HCC” (SCANDIEDGE THERAPEUTICS AB, priority 2023, published 2026).

Key:
[1] = MTT cell viability / IC50 in growth media; assay type: cell-based, human; conditions: human, HepG2 cells, 10 μM; for viability at 2 days, 10 µM: treatment for 2 days; for viability at 4 day, 10 µM: day 4
[2] = MTT cell viability after one week steatosis (ranking of target molecules); assay type: cell-based, human; conditions: human, HepG2 cells (wild type); HepG2, 10 μM, one week steatosis induce media, MTT; Control 100.00
Outline: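 HepG2 cells, 60,000 per well, kept one week in steatosis medium (high-glucose DMEM, 10 μg/ml insulin, 10 μM T0901317) with 10 μM compound. Medium changed at day 0, 3 and 5. Viability measured by MTT.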

HepG2 cells [3] = assay: Invasion assay (transwell); assay type: cell-based, human; conditions: Homo sapiens, HepG2, 24 hr, read-out: invasiveness reduced by
Method: The effects of the treatment with the compounds on the invasion ability of HepG2 and Huh7 cells were determined by 8 μm pores transwell chamber (Corning™ 3464, USA).
(§1) Transwell membrane was coated with 100 μl collagen (Sigma C3867, USA) diluted with PBS to a concentration of 1 mg/ml. After overnight incubation at 4° C., the collagen solution was discarded and the membrane was washed with PBS. 100,000 cells in 200 μl serum free media together with the tested compounds were added into the upper well and 600 μl of 10% FBS supplemented growth media was added to the lower well as an invasive attractant in a 24-well plate. Cells were incubated at 37° C. in a CO2 incubator for one day. The cells were fixed with 3.7% formaldehyde for 30 minutes at room temperature and washed with PBS twice. The cells were stained with 1% crystal violet in PBS for 20 minutes and residual cells in inner membrane were swabbed gently with a cotton swab. Invaded cells located at the outer membrane were imaged by ZOE Fluorescent Cell Imager (Bio-Rad, USA) and counted by image. For wound healing assay, 100,000 cells per well were seeded into 24-well plates and grown until 95-100% confluent. Linear wound was created by using a 200 μl pipette tip. Image was recorded at the time point of day 0 until control group wound closure with 1 μM of compounds by ZOE Fluorescent Cell Imager (Bio-Rad, USA). Wound areas were measured using ImageJ software.

JNK1/2/3 = assay: Western blot, JNK1/2/3 P54 and p46 isoforms; assay type: cell-based, human; conditions: 10 μM, 2 days
Method: HepG2 cells were seeded into a 6-well plate at 400,000 cells per well. After treatment with 10 μM of JNK-IN-5A and its derivatives for two days, lysates were harvested with CelLytic M (C2978, Sigma-Aldrich). […] SDS PAGE were performed using Mini-PROTEAN® TGX™ Precast Gels (Bio-Rad) and transferred using Trans-Blot® Turbo™ Transfer System (Bio-Rad). […] ImageQuantTMLAS 500 (29-0050-63, GE) was used to detect protein bands.

HepG2 cells [4] = assay: Wound healing assay; assay type: cell-based; conditions: Homo sapiens, HepG2, 96 h, day 4, untreated 100% wound closure, read-out: wound healing delayed by
Method: as §1

[5] = In vivo toxicological study in rats: clinical observations and body weight; conditions: 300 mg/kg oral administration
Method: Forty-two male and forty-two female rats of the Wistar strain were allocated to the study. Three groups of three males and three females were given doses of 30, 100 and 300 mg/kg of target compounds (Table 8). The vehicle was 1.5 w/w % HPMC, 1.5 w/w % PS80 in 10 mM PBS, pH 7 and dose volume were 5 mL/kg.
The animals were acclimatised at least 14 day prior to the study and exposed to a 12 hours light, 12 hours dark light cycle. The formulations were administered via oral gavage. Administration occurred once daily in the morning for seven consecutive days.
A check of animal health and welfare status was done at least once on working days and weekend days.
Body weights were recorded the week before and within 24 hours before start of dosing, on Day 3 and on necropsy Day 8.

| SMILES | viability at 2 days, 10 µM [1] | viability at 1 week, 10 µM [2] | inhibition at 1 µM (HepG2 cells [3]) | JNK1/2/3 p46 expression (JNK1/2/3) | inhibition at 1 µM (HepG2 cells [4]) | viability at 4 day, 10 µM [1] | tolerability (adverse clinical signs, body weight, clinical pathology parameters) [5] |
| --- | --- | --- | --- | --- | --- | --- | --- |
| N#Cc1c(NC(=O)c2cccc3ccccc23)sc2c1CCCC2 [JNK-IN-5A, N-(3-cyano-4,5,6,7-tetrahydrobenzo[b]thiophen-2-yl)-1-naphthamide] | 59.7% | 56.4% | 24.9% | 0.88 times | 32.7% | – | – |
| COc1ccc(C(=O)Nc2sc3c(c2C#N)CCCCC3)cc1OC [PKL-A135, N-(3-cyano-5,6,7,8-tetrahydro-4H-cyclohepta[b]thiophen-2-yl)-3,4-dimethoxy-benzamide] | 43.1% | 63.2% | 29.5% | 0.77 times | 31.2% | 15.9% | well tolerated |
| COc1ccccc1NC(=O)N1CCc2c(sc(NC(=O)c3cccc4ccccc34)c2C#N)C1 [PKL-A152] | – | 43.9% | – | – | – | – | well tolerated |
| N#Cc1c(NC(=O)c2cccc3ccccc23)sc2c1CCN(C(=O)Nc1ccccc1OC(F)(F)F)C2 [PKL-A159] | 61.6% | 2.33% | 77.8% | not significantly altered | 35.5% | – | well tolerated |
| N#Cc1c(NC(=O)c2cccc3ccccc23)sc2c1CCN(CC(=O)Nc1cccc(Br)c1)C2 [PKL-B171] | 67.4% | 22% | 21.4% | 0.87 times | 36.4% | 1.1% | well tolerated |
